From patent US4874795A, “Composition for delivery of orally administered drugs and other substances” (priority 1986, dated 1989)
Like-named read-outs stand apart in the source and are kept apart here.

Columns and labels:
[1] = cited from earlier work; for absorption in mixed micelle versus alone: mono-olein/sodium taurocholate
[2] = Capacity and stability of the composition as a vitamin A delivery means; format: physicochemical; conditions: for Viscosity: cold solution
Protocol: A composition that included oleic acid, monoglyceride and lysophosphatidyl choline as described in Example I was used for characterizing the capacity of the composition for vitamin A (also as described above). Vitamin A was added in batches to the composition as follows: 1st addition, 0.277 mmoles; 2nd, 0.241; 3rd, 0.276; 4th, 0.262 and 5th, 0.285. […] The millimole ratio of the composition was approximately 2:1:0.1 (oleic acid: mono-olein:lysophosphatidyl choline).
After each addition the approximate amount of time necessary for the complete dissolution of the added vitamin A was recorded, as was the extent of schlierin evident. The time needed to obtain a minimal schlieric effect was generally between 5 minutes and 60 minutes and inversely related to the amount of vitamin A added. After each addition and the achievement of a minimal schlieric effect, the solution was placed in an ice-bath in order to evaluate its stability. The relative viscosity of the cold solution was also recorded. […]

[3] = in vivo; cited from earlier work
[4] = cited from earlier work
[5] = excess bile salts, cited from earlier work
[6] = cited from earlier work; for biological activity: oral
[7] = cited from earlier work; remark: listed apart in the source
[8] = oral, cited from earlier work
[9] = rat, in vivo
Protocol: Tritium labeled (^3 H) vitamin A ([…]; Hoffman LaRoche) was incorporated into a lipid formulation of the following composition: 56 mg. of oleic acid (NuCheck Prep, Inc.); 36 mg. of mono-olein (NuCheck Prep, Inc.) and 6 mg. of lysophosphatidyl choline derived from soy lecithin (A. E. Staley Mfg. Co.). This corresponds to an approximate molar ratio of oleic acid: mono-olein: lysophosphatidyl choline of 2:1:0.1. (The approximate molar percentages of the components were 64.5:32.3:3.2, respectively). The composition was administered to Sprague-Dawley rats (weighing 210-230 gm) by gavage.
Tritium-labeled vitamin A (7mg. or 0.25 millimoles) was administered to Sprague-Dawley rats (as above) in 99 mg. food grade, refined corn oil (A. E. Staley Mfg. Co.).
The concentration of vitamin A equivalents in the plasma was measured by obtaining duplicate 0.05 ml. blood samples from the orbital sinus at 0.5, 1, 2, 3, 4, 6, 8 and 24 hours after administration. The blood was collected in hematocrit tubes and centrifuged; the plasma was transferred into tared scintillation vials and weighed. The radioactivity was determined by liquid scintillation counting.

[10] = 1st addition, total 0.277 mmoles
[11] = 2nd addition, total 0.518 mmoles
[12] = 3rd addition, total 0.794 mmoles
[13] = 4th addition, total 1.056 mmoles
[14] = 5th addition, total 1.341 mmoles

## O=c1[nH]cc(F)c(=O)[nH]1 [5-fluorouracil]
[1]; large intestine
  absorption in mixed micelle versus alone: greater
[1]; stomach or small intestine
  absorption in mixed micelle versus alone: little difference

## CC1=C(/C=C/C(C)=C/C=C/C(C)=C/CO)C(C)(C)CCC1 [Vitamin A]
[2]; [10]
  Schleirin: none
  Temp. to attain a clear solution: 20 °C
  Viscosity: normal
[2]; 1st addition, total 0.277 mmoles, 20° C.
  Time to attain a clear solution: 1 min
[2]; [11]
  Schleirin: minimal
  Temp. to attain a clear solution: 20 °C
  Viscosity: normal
[2]; 2nd addition, total 0.518 mmoles, 20° C.
  Time to attain a clear solution: 1 min
[2]; [12]
  Schleirin: medium
  Temp. to attain a clear solution: 37 °C
  Viscosity: thicker
[2]; 3rd addition, total 0.794 mmoles, 37° C.
  Time to attain a clear solution: 5 min
[2]; [13]
  Schleirin: medium
  Temp. to attain a clear solution: 37 °C
  Viscosity: viscous
[2]; 4th addition, total 1.056 mmoles, 37° C.
  Time to attain a clear solution: 10 min
[2]; [14]
  Schleirin: extensive
  Temp. to attain a clear solution: 46 °C
  Viscosity: very viscous
[2]; 5th addition, total 1.341 mmoles, 46° C.
  Time to attain a clear solution: 10 min
[2]; approximately 1 gm of the composition, after 5th addition
  total vitamin A added (capacity of the composition): 1.341 mmol

## CCCCCCCCCC(=O)O [decanoic]
[3]
  absorbed fatty acid transported in the lymph: 5-20%

## C[C@]12CC[C@@H]3c4ccc(O)cc4CC[C@H]3[C@@H]1CC[C@@H]2O [estradiol]
[4]; 2:1:2 composition, excess bile salts
  initial concentrations in plasma of estradiol relative to lymph: greater than those in lymph
[4]; 2:1:2 fatty acids:monoglycerides:bile salts
  estradiol co-absorbed with lipid and entering circulation via thoracic lymph: 25-50%
[5]; with phosphatidyl choline
  estradiol remaining in 2:1:2 micellar composition: 70-75%
[5]; without phosphatidyl choline
  estradiol remaining associated with 2:1:2 micellar composition: about 60%

## COC1=CC(=O)C[C@@H](C)[C@]12Oc1c(Cl)c(OC)cc(OC)c1C2=O [griseofulvin]
[6]; co-administered with high fat content meal or in oil and water emulsion
  absorption: enhanced

## CCCCCCCCCCCC(=O)O [lauric]
[3]
  absorbed fatty acid transported in the lymph: 15-55%

## CCCCC/C=C\C/C=C\CCCCCCCC(=O)O [linoleic]
[3]
  absorption into lymph compared with saturated fatty acids: more rapidly and to a greater extent

## CCCCCCCCCCCCCC(=O)O [myristic]
[3]
  absorbed fatty acid transported in the lymph: 68-80%
  absorption of fatty acid: 80-90%

## CCCCCCCC/C=C\CCCCCCCC(=O)OC[C@@H](O)COP(=O)([O-])OCC[N+](C)(C)C [oleoyl lysophosphatidyl choline]
[7]; versus lysophosphatidyl choline from mainly saturated phosphatidyl choline
  increase in triglyceride and phospholipid in lymphatic transported fat: 100%

## CCCCCCCCCCCCCCCC(=O)O [palmitic]
[3]
  absorbed fatty acid transported in the lymph: 85%
  absorption of fatty acid: 65-70%

## CC(=O)[C@H]1CC[C@H]2[C@@H]3CCC4=CC(=O)CC[C@]4(C)[C@H]3CC[C@]12C [progesterone]
[6]; in combination with cholesterol or its esters
  biological activity: good sustained biological activity

## CCCCCCCCCCCCCCCCCC(=O)O [stearic]
[3]
  absorbed fatty acid transported in the lymph: 85%
  absorption of fatty acid: 30-45%

## [H]/N=C(/N)N[C@H]1[C@H](O)[C@@H](O)[C@H](O[C@@H]2O[C@@H](C)[C@](O)(C=O)[C@H]2O[C@@H]2O[C@@H](CO)[C@H](O)[C@@H](O)[C@@H]2NC)[C@@H](N/C(N)=N\[H])[C@@H]1O [streptomycin]
[1]; in vivo
  absorption from rectum and large intestine: comparable
  absorption via rectum and large intestine versus comparable dose administered duodenally: markedly greater
  absorption without micelle formulation: poorly absorbed

## CCCCCCCCCCC(=O)O[C@H]1CC[C@H]2[C@@H]3CCC4=CC(=O)CC[C@]4(C)[C@H]3CC[C@]12C [testosterone undecanoate]
[6]; peanut oil solution versus aqueous micro-crystalline suspension
  biological activity: more biologically active

## COC1=C(OC)C(=O)C(C/C=C(\C)CC/C=C(\C)CC/C=C(\C)CC/C=C(\C)CC/C=C(\C)CC/C=C(\C)CC/C=C(\C)CC/C=C(\C)CC/C=C(\C)CCC=C(C)C)=C(C)C1=O [ubidecarenone]
[8]; drug alone
  absorption of ubidecarenone: 2.3%
[8]; in mixture of C12-18 fatty acids and monoglycerides
  absorption of ubidecarenone: 8.3%

## Corn Oil
[9]
  absorption of vitamin A: complete
[9]; po, 180 min
  vitamin A absorbed: 77%

## gentamycin
[1]; bile salt: mixed lipid micelle
  absorption from rectum and large intestine: comparable
[1]; mixed lipid micelle, duodenal concentration even four times higher
  absorption via rectum and large intestine versus comparable dose administered duodenally: markedly greater

## heparin
[1]; in vivo
  absorption from large intestine relative to small intestine: twice
  absorption without micelle formulation: poorly absorbed
  concentration in mixed micelle for potentiation, large intestine relative to small intestine: approximately one-fourth
  effect of mixed micelles on absorption: promotes the absorption

## lysophosphatidyl choline
[7]; in vivo
  absorption of lysophosphatidyl choline: rapidly absorbed intact
